Experimental data as given in patent US11912670B1, “Ethyl 4-(5-(3-fluorophenyl)-4-phenyl-4H-1,2,4-triazol-3-ylthio)butanoate as an antimicrobial compound” (KING FAISAL UNIVERSITY, priority 2023, dated 2024).

Tests used:
Assay type in all cases: cell-based
Aspergillus flavus = assay: Agar plate disc-diffusion, antifungal; details: Sabouraud's dextrose agar, 72 hours, DMSO control zone subtracted
Experimental: (§1) The agar plate disc-diffusion method was applied. […] The discs were then placed onto the surface of agar plates (nutrient agar for bacteria and Sabouraud's dextrose agar for fungi) seeded with the test organism. Each plate contained 15 mL of the agar medium, previously seeded with 0.2 mL of the broth culture of each organism pregrown for 18 hours. The plates were incubated at 37° C. for 48 hours, and 72 hours for fungi. The inhibition zones were measured in mm. Discs impregnated with DMSO were used as a control, and its inhibition zone was subtracted from the tested compound actual inhibition zone.

[1] = system: Chrysosporium keratinophilum; assay: Agar plate disc-diffusion, antifungal; details: Sabouraud's dextrose agar, 72 hours, DMSO control zone subtracted
Experimental: as §1

Pseudomonas aeruginosa = assay: Agar plate disc-diffusion, antibacterial (gram negative); details: nutrient agar, 37° C., 48 hours, DMSO control zone subtracted
Experimental: as §1

Escherichia coli = assay: as above; details: nutrient agar, 37° C., 48 hours, DMSO control zone subtracted
Experimental: as §1

Bacillus cereus = assay: Agar plate disc-diffusion, antibacterial (gram positive); details: nutrient agar, 37° C., 48 hours, DMSO control zone subtracted
Experimental: as §1

Staphylococcus aureus = assay: as above; details: nutrient agar, 37° C., 48 hours, DMSO control zone subtracted
Experimental: as §1

[2] = A = concentration of comp. = 10,000 μL
[3] = B = concentration of comp. = 30,000 μL
[4] = C = concentration of comp. = 50,000 μL

For `CCOC(=O)CCCSc1nnc(-c2cccc(F)c2)n1-c1ccccc1` [III, ethyl 4-(5-(3-fluorophenyl)-4-phenyl-4H-1,2,4-triazol-3-ylthio)butanoate], the “inhibition zone, Aspergillus flavus, A” value (Aspergillus flavus; [2]) was 26 mm, the “inhibition zone, Aspergillus flavus, B” value (Aspergillus flavus; [3]) was 28 mm and the “inhibition zone, Aspergillus flavus, C” value (Aspergillus flavus; [4]) was 40 mm. The “inhibition zone, Chrysosporium keratinophilum, A” value ([1]; A = concentration of comp. = 10,000 μg/mL) was 25 mm, the “inhibition zone, Chrysosporium keratinophilum, B” value [1, 3] was 28 mm and the “inhibition zone, Chrysosporium keratinophilum, C” value [1, 4] was 48 mm. The “inhibition zone, Pseudomonas aeruginosa, A” value (Pseudomonas aeruginosa; [2]) was 25 mm, the “inhibition zone, Pseudomonas aeruginosa, B” value (Pseudomonas aeruginosa; [3]) was 29 mm and the “inhibition zone, Pseudomonas aeruginosa, C” value (Pseudomonas aeruginosa; [4]) was 46 mm. For the same compound, the “inhibition zone, Escherichia coli, A” value (Escherichia coli; [2]) was 22 mm, the “inhibition zone, Escherichia coli, B” value (Escherichia coli; [3]) was 29 mm and the “inhibition zone, Escherichia coli, C” value (Escherichia coli; [4]) was 42 mm. The “inhibition zone, Bacillus Cereus, A” value (Bacillus cereus; [2]) was 27 mm, the “inhibition zone, Bacillus Cereus, B” value (Bacillus cereus; [3]) was 29 mm and the “inhibition zone, Bacillus Cereus, C” value (Bacillus cereus; [4]) was 40 mm. The “inhibition zone, Staphylococcus aureus, A” value (Staphylococcus aureus; [2]) was 18 mm, the “inhibition zone, Staphylococcus aureus, B” value (Staphylococcus aureus; [3]) was 25 mm and the “inhibition zone, Staphylococcus aureus, C” value (Staphylococcus aureus; [4]) was 30 mm.
